Data set [1] in a line: Selectivity index, ratio of CC50 for human HEK293T cells to IC50 for antiviral activity against Influenza A virus A/WSN/33 (H1N1) infected in HEK293T cells. In kind it is toxicity, cell-based. As to conditions: read-out: Ratio CC50/IC50.
Data set [2] in a line: Cytotoxicity against human HEK293T cells assessed as cell viability after 48 hrs by CCK-8 assay. In kind it is toxicity, cell-based, HEK-293T. (Tetrazolium assays rely on reduction of a dye to a coloured formazan, in cell work by metabolically active cells.)
Data set [3] relates to Influenza A virus. Briefly: Antiviral activity against Influenza A virus A/WSN/33 (H1N1) infected in HEK293T cells by Gaussia luciferase reporter assay. Conditions: HEK-293T. In kind it is functional, organism-based. On the technique in general: In a reporter assay the amount or activity of a reporter protein is the signal.
Data set [4] has as its system Influenza A virus. Briefly: Antiviral activity against Influenza A virus A/WSN/33 (H1N1) infected in HEK293T cells at 10 uM by Gaussia luciferase reporter assay. Conditions: HEK-293T. In kind it is functional.

Broadly, the CC50 is the concentration at which the toxic effect on the cells reaches its halfway point. As usually defined, the IC50 is the concentration at which inhibition is half-maximal. Low readings indicate greater potency, high ones weaker potency. A word on the inhibition: it is the change of the read-out against control, counted positive when it falls. Low values mean a response near the control, high ones a response far below the control. Turning to `Cn1cc(SCc2nnc(SCc3ccccc3OC(F)(F)F)n2-c2c(Cl)cccc2Cl)c2ccccc21`, the selectivity ratio in data set [1] is greater than 70.9. Moreover, the CC50 at 48 h in data set [2] is greater than 100 µM. Moreover, in data set [3], half-maximal inhibition (IC50) was put at 1.41 µM. For the same molecule, the inhibition at 10 µM in data set [4] was greater than 50%.
For the molecule `Cn1cc(SCc2nnc(SCc3ccc(Cl)c(F)c3)n2-c2c(Cl)cccc2Cl)c2ccccc21`, the selectivity ratio in data set [1] is greater than 14. The 50% cytotoxic concentration (CC50) at 48 h in data set [2] is greater than 100 µM. Also, half-maximal inhibition in data set [3] (IC50) was put at 7.12 µM. The molecule further yielded an inhibition at 10 µM in data set [4] greater than 50%.
Consider `Cn1cc(SCc2nnc(SCc3ccccc3Cl)n2-c2c(Cl)cccc2Cl)c2ccccc21`, for which the selectivity ratio in data set [1] came to 6.65. Moreover, the CC50 at 48 h in data set [2] stood at 49.6 µM. The same molecule registered an IC50 in data set [3] of 7.46 µM. The inhibition at 10 µM in data set [4] was greater than 50%.
For `Cn1cc(SCc2nnc(SCc3cccc(Cl)c3F)n2-c2c(Cl)cccc2Cl)c2ccccc21`, the selectivity ratio in data set [1] was greater than 23.8. In data set [2], the CC50 at 48 h is greater than 100 µM. The molecule further gave an IC50 in data set [3] of 4.21 µM. The molecule further registered an inhibition at 10 µM in data set [4] greater than 50%.
Turning to `Cn1cc(SCc2nnc(SCc3ccc(Cl)cc3F)n2-c2c(Cl)cccc2Cl)c2ccccc21`, the selectivity ratio in data set [1] is 7.67. Also, in data set [2], the CC50 at 48 h was determined as 87.3 µM. This molecule registered an IC50 in data set [3] of 11.5 µM. Also, in data set [4], the inhibition at 10 µM was greater than 50%.
For the molecule `Cn1cc(SCc2nnc(SCc3cc(Cl)ccc3F)n2-c2c(Cl)cccc2Cl)c2ccccc21`, the selectivity ratio in data set [1] was greater than 35.3. The 50% cytotoxic concentration (CC50) at 48 h in data set [2] is greater than 100 µM. This molecule also had a concentration for half-maximal inhibition (IC50) in data set [3] of 2.83 µM. Also, in data set [4], the inhibition at 10 µM was greater than 50%.
In the same order, the values of `Cn1cc(SCc2nnc(SCc3cccc(Cl)c3Cl)n2-c2c(Cl)cccc2Cl)c2ccccc21` are greater than 46.7, greater than 100 µM, 2.14 µM and greater than 50%.
For `Cn1cc(SCc2nnc(SCc3ccccc3C#N)n2-c2c(Cl)cccc2Cl)c2ccccc21`, the selectivity ratio in data set [1] worked out at 24.7. Also, in data set [2], the CC50 at 48 h is 78.6 µM. In data set [3], the IC50 was 3.18 µM. This molecule also had an inhibition at 10 µM in data set [4] greater than 50%.
The matching figures for `Cn1cc(SCc2nnc(SCc3ccc(Cl)cc3Cl)n2-c2c(Cl)cccc2Cl)c2ccccc21`: greater than 16.2, greater than 100 µM, 6.19 µM and greater than 50%.
As for `Cn1cc(SCc2nnc(SCc3cc(Cl)ccc3Cl)n2-c2c(Cl)cccc2Cl)c2ccccc21`, the selectivity ratio in data set [1] is greater than 19.5. In addition, the CC50 at 48 h in data set [2] is greater than 100 µM. Besides, in data set [3], half-maximal inhibition (IC50) was put at 5.12 µM. Further, the inhibition at 10 µM in data set [4] is greater than 50%.
On to `Cn1cc(SCc2nnc(S)n2-c2c(Cl)cccc2Cl)c2ccccc21`, for which the selectivity ratio in data set [1] was greater than 67.6. The CC50 at 48 h in data set [2] is greater than 100 µM. In data set [3], this molecule displayed a 50% inhibitory concentration (IC50) of 1.48 µM. The molecule further had an inhibition at 10 µM in data set [4] greater than 50%.
In the case of `Cn1cc(SCc2nnc(SCc3c(F)cccc3Cl)n2-c2c(Cl)cccc2Cl)c2ccccc21`, in data set [1], the selectivity ratio is greater than 25.4. For the same molecule, in data set [2], the CC50 at 48 h was greater than 100 µM. In data set [3], this molecule came in with an IC50 of 3.94 µM. The molecule further registered an inhibition at 10 µM in data set [4] greater than 50%.
For the molecule `Cn1cc(SCc2nnc(SCc3ccc(OC(F)(F)F)c(Cl)c3)n2-c2c(Cl)cccc2Cl)c2ccccc21`, the selectivity ratio in data set [1] worked out at 10.4. In addition, the CC50 at 48 h in data set [2] was 77.7 µM. In data set [3], this molecule yielded a half-inhibitory concentration (IC50) of 7.49 µM. In data set [4], this molecule gave an inhibition at 10 µM greater than 50%.
For the molecule `Cn1cc(SCc2nnc(SCc3cc(C(F)(F)F)ccc3Cl)n2-c2c(Cl)cccc2Cl)c2ccccc21`, the selectivity ratio in data set [1] was 10.6. Further, the CC50 at 48 h in data set [2] was determined as 53.8 µM. Also, the midpoint of inhibition in data set [3], the IC50, lay at 5.1 µM. In addition, the inhibition at 10 µM in data set [4] was greater than 50%.
For the molecule `Cn1cc(SCc2nnc(SCc3ccc(Cl)cc3C(F)(F)F)n2-c2c(Cl)cccc2Cl)c2ccccc21`, the selectivity ratio in data set [1] is 21.8. Further, the CC50 at 48 h in data set [2] worked out at 56.5 µM. In data set [3], the IC50 came out at 2.59 µM. The molecule further yielded an inhibition at 10 µM in data set [4] greater than 50%.
The matching figures for `CCOC(=O)c1c(CSc2nnc(CSc3cn(C)c4ccccc34)n2-c2c(Cl)cccc2Cl)n(C)c2cc(Br)c(OC(C)=O)cc12`: greater than 44, greater than 100 µM, 2.27 µM and greater than 50%.
In the same order, the values of `Cn1cc(SCc2nnc(SCc3ccccc3)n2-c2c(Cl)cccc2Cl)c2ccccc21` are greater than 74.6, greater than 100 µM, 1.34 µM and greater than 50%.
On to `Cn1cc(SCc2nnc(SCc3c(Cl)cccc3Cl)n2-c2c(Cl)cccc2Cl)c2ccccc21`, for which the selectivity ratio in data set [1] was greater than 11. Also, the CC50 at 48 h in data set [2] is greater than 100 µM. This molecule returned an IC50 in data set [3] of 9.1 µM. The inhibition at 10 µM in data set [4] was greater than 50%.
On to `NC(=O)c1ncn([C@@H]2O[C@H](CO)[C@@H](O)[C@H]2O)n1` [RIBAVIRIN], for which the CC50 at 48 h in data set [2] was greater than 100 µM. It took 27.8 µM to reach half-maximal inhibition in data set [3] (IC50).

These data come from ChEMBL document CHEMBL5143634, “Design, synthesis, and anti-influenza A virus activity evaluation of novel indole containing derivatives of triazole” (Bioorg Med Chem Lett, 2022).
